These results are taken from patent publication US20060264411A1, “Control of biofilm formation” (priority 2005, published 2006).

Data set [1] has as its system cysB gene. The note with it: examples of U.S. patent application Ser. No. 11/085,279; cited from earlier work.
In data set [2] the test system is Haemophilus influenzae (ATCC 10211). Description: Antibacterial effect (NCCLS MIC). The note with it: ATCC10211, studied at 64 μg/mL, read-out: MIC (minimal inhibitory concentration). The data set is classed as cell-based. The method, then: (§1) Using the appropriate NCCLS procedures, the antibacterial effect of asiatic acid on Haemophilus influenzae (ATCC 10211), E. coli (ATCC 25922), and P. aeruginosa (ATCC 27853) was studied at 64 μg/mL.

Data set [3] has as its system P. aeruginosa (ATCC 27853). Description: Antibacterial effect (NCCLS MIC). It is filed as cell-based. The conditions noted are these: Pseudomonas aeruginosa, ATCC27853, studied at 64 μg/mL, read-out: MIC (minimal inhibitory concentration). On the procedure:
as §1

The subject of data set [4] is E. coli (ATCC 25922). Put plainly: Antibacterial effect (NCCLS MIC). The data set is classed as cell-based. The conditions noted are these: Escherichia coli, ATCC25922, studied at 64 μg/mL, read-out: MIC (minimal inhibitory concentration). The method, then:
as §1

The subject of data set [5] is E. coli clinical strain UTI89. Put plainly: Biofilm formation inhibition, crystal violet, E. coli clinical strain UTI89. The conditions noted are these: Escherichia coli, read-out: inhibited biofilm formation as compared to the controls. It is filed as cell-based. The method, then: (§2) Biofilm inhibition experiments were conducted using an assay adapted from the reported protocol described in Pratt and Kolter, 1998, Molecular Microbiology, 30: 285-293; Li et al., 2001, J. Bacteriol., 183: 897-908. E. coli clinical strain UTI89 was grown in LB in 96 well plates at room temperature for one or two days without shaking. E. coli laboratory strain JM109 was grown in LB plus 0.2% glucose in 96 well plates at room temperature for one day without shaking. To quantify the biofilm mass, the suspension culture was poured out and the biofilm was washed three times with water. The biofilm was stained with 0.1% crystal violet for 20 minutes. The plates were then washed three times with water. OD reading at 540 nm was measured to quantify the biofilm mass at the bottom of the wells. Then 95% ethanol was added to dissolve the dye at the bottom and on the wall and the OD reading at 540 nm was measured to quantify the total biofilm mass. To study the overall effect of the compounds (3.6 mg/mL in 100% ethanol as stock solution), it was added with the inoculation and a time course of biofilm mass was measured. Appropriate amounts of 100% ethanol were added to each sample to eliminate the effect of solvent. Each condition had 3-4 replicates on each plate and was performed over multiple days.

Data set [6] has as its system P. aeruginosa strain PAO1. Put plainly: Rotating disk reactor (RDR) biofilm test with and without tobramycin. The data set is classed as cell-based, Pseudomonas aeruginosa. The conditions noted are these: for Test Compound, log10 CFU: no tobramycin; for Tobramycin and Test Compound, log10 CFU: then tobramycin 100 μg/ml 2 h. The method, then:
Biofilm formation of P. aeruginosa was evaluated using a standardized biofilm method with a rotating disk reactor (RDR). This method provides a model resembling the formation of biofilms in cystic fibrosis patients. The rotating disk reactor consists of a one-liter glass beaker fitted with a drain spout. The bottom of the vessel contains a magnetically driven rotor with six 1.27 cm diameter coupons constructed from polystyrene. The rotor consists of a star-head magnetic stir bar upon which a disk was affixed to hold the coupons. The vessel with the stir bar was placed on a stir plate and rotated to provide fluid shear. A nutrient solution (AB Trace Medium with 0.3 mM glucose, see Table 1 below for composition) was added through a stopper in the top of the reactor at a flow rate of 5 ml/min. The reactor volume was approximately 180 ml and varied slightly between reactors depending on the placement of the drain spout and the rotational speed of the rotor. At a volume of 180 ml, the residence time of the reactors was 36 minutes. The reactors were operated at room temperature (c.a. 26° C.).
For each test, two RDRs were operated in parallel with one receiving test compound and the other serving as an untreated control. The RDRs were sterilized by autoclave, then filled with sterile medium and inoculated with P. aeruginosa strain PAO1. The reactors were then incubated at room temperature in batch mode (no medium flow) for a period of 24 hours, after which the flow was initiated for a further 24 hour incubation. Test compounds were dissolved in 10 ml ethanol to achieve a concentration of 1.8 mg/ml. After the 48 hours of biofilm development described above, the 10 ml of ethanol containing the test compounds were added to the reactor to achieve a final concentration of approximately 50, 100, or 200 μg/ml. Control reactors received 10 ml of ethanol. The reactors were then incubated for an additional 24 hours in batch (no flow) mode. After this incubation period, the six coupons were removed from each reactor and placed in 12-well polystyrene tissue culture plates with wells containing either 2 ml of a 100 μg/ml tobramycin solution or 2 ml of phosphate-buffered saline (PBS). These plates were incubated at room temperature for two hours. The coupons were then rinsed by three transfers to plates containing 2 ml of fresh PBS. For each two RDR reactors run in parallel, four sets of three coupons were obtained: one set with no test compound treatment and no tobramycin treatment, one set with no test compound treatment and tobramycin treatment, one set treated with a test compound treatment and no tobramycin treatment, and one set treated with a test compound treatment and tobramycin. After rinsing, one coupon of each set of three was stained with a LIVE/DEAD® BacLight™ Bacterial Viability Kit (Molecular Probes, Eugene Oreg.) and imaged using epifluorescent microscopy. The remaining two coupons were placed in 10 ml of PBS and sonicated for five minutes to remove and disperse biofilm cells. The resulting bacterial suspensions were then serially diluted in PBS and plated on tryptic soy agar plates for enumeration of culturable bacteria. The plates were incubated for 24 hours at 37° C. before colony forming units (CFU) were determined.
The results are averages from experiments performed on three separate days for each test compound. The values reported are as log10 CFU.

The subject of data set [7] is E. coli laboratory strain JM109. Put plainly: Biofilm formation inhibition, crystal violet, E. coli laboratory strain JM109. The data set is classed as cell-based. The note with it: Escherichia coli, read-out: inhibited biofilm formation as compared to the controls. On the procedure:
as §2

Data set [8] in a line: Bladder concentrations in rats after oral dose. The conditions noted are these: rat, in vivo, po, 50 mg/kg. The method, then: Pharmacokinetic studies of asiatic acid and madecassic acid in rats were performed separately. Asiatic acid and madecassic acid were evaluated at 50 mg/kg (oral). Two animals were assigned to each group. Prior to dosing, a baseline blood sample was taken from each animal. At time zero, asiatic acid and madecassic acid, a single bolus dose in 50% Labrasol (Gattefosse) was given to each animal. Bladders were analyzed at 24 hours. Concentrations of both asiatic acid and madecassic acid in the bladder were approximately 30 μg/g at 24 hours.

Data set [9] deals with S. sobrinus 6715. Put plainly: Biofilm growth inhibition in polycarbonate tubes. The data set is classed as cell-based. The note with it: Streptococcus sobrinus, 40 μg/mL.

On to `C[C@H]1[C@H](C)CC[C@]2(C(=O)O)CC[C@]3(C)C(=CC[C@@H]4[C@@]5(C)C[C@@H](O)[C@H](O)[C@@](C)(CO)[C@@H]5CC[C@]43C)[C@H]12` [Asiatic acid, asiatic acid], for which the “expression of a cysB gene in E. coli” value in data set [1] is listed as “modulate the expression of a cysB gene”. The MIC in data set [2], in data set [3] and in data set [4] was above 64 mg/L in each case. Further, in [5] (4 ug/ml), the inhibition at 4 µg/mL is around 10%. Moreover, in data set [5] (8 ug/ml), the inhibition at 8 µg/mL is around 15%. In addition, the inhibition at 16 µg/mL in data set [5] (16 ug/ml) is around 50%. In addition, in data set [5] (32 ug/ml), the inhibition at 32 µg/mL is around 90%. For the same molecule, the “Test Compound, log10 CFU” value in [6] (test compound 50 μg/ml 24 h) worked out at 7.7 log10 CFU; in data set [6] (test compound 100 μg/ml 24 h) it was 7.7 log10 CFU; in data set [6] (test compound 200 μg/ml 24 h) it was 7.5 log10 CFU. The results for the “Tobramycin and Test Compound, log10 CFU” value in data set [6] (test compound 50 μg/ml 24 h), in [6] (test compound 100 μg/ml 24 h) and in data set [6] (test compound 200 μg/ml 24 h) were 5.3 log10 CFU, 5.5 log10 CFU and 5.2 log10 CFU, respectively. Further, the inhibition at 5 µg/mL in [7] (JM 109, 5 ug/ml) was around 70%. Also, the inhibition at 10 µg/mL in data set [7] (JM 109, 10 ug/ml) was around 80%. The same molecule gave a concentration at 24 h in data set [8] of around 30000 ng/g. For the same molecule, the inhibition at 40 µg/mL in data set [9] was above 75%.
